# Experimental data taken from patent publication US20090105305A1, “Therapeutic Agents - 550” (AstraZeneca AB, priority 2006, published 2009).
# Biological target: T1, human Fatty Acid Synthase (Homo sapiens, UniProt P49327)
# T1 construct: made in house
# Experiment: Human FAS enzyme assay (decrease in NADPH fluorescence)
# Assay type: biochemical
# Details: compounds excluded from the claims by proviso
# How it was run: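 Readout: decrease in NADPH fluorescence (340 nm ex, 460 nm em) after 60 min at RT, background-subtracted against a read taken before substrate. Substrate mix contained 500 μM malonyl-CoA and 150 μM acetyl-CoA. It was added after 15 min enzyme (0.4 μg in-house human FAS)–compound–NADPH preincubation in Tris pH 7.5 buffer; % inhibition was fitted to IC50.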
# T1 sequence (P49327 whole entry): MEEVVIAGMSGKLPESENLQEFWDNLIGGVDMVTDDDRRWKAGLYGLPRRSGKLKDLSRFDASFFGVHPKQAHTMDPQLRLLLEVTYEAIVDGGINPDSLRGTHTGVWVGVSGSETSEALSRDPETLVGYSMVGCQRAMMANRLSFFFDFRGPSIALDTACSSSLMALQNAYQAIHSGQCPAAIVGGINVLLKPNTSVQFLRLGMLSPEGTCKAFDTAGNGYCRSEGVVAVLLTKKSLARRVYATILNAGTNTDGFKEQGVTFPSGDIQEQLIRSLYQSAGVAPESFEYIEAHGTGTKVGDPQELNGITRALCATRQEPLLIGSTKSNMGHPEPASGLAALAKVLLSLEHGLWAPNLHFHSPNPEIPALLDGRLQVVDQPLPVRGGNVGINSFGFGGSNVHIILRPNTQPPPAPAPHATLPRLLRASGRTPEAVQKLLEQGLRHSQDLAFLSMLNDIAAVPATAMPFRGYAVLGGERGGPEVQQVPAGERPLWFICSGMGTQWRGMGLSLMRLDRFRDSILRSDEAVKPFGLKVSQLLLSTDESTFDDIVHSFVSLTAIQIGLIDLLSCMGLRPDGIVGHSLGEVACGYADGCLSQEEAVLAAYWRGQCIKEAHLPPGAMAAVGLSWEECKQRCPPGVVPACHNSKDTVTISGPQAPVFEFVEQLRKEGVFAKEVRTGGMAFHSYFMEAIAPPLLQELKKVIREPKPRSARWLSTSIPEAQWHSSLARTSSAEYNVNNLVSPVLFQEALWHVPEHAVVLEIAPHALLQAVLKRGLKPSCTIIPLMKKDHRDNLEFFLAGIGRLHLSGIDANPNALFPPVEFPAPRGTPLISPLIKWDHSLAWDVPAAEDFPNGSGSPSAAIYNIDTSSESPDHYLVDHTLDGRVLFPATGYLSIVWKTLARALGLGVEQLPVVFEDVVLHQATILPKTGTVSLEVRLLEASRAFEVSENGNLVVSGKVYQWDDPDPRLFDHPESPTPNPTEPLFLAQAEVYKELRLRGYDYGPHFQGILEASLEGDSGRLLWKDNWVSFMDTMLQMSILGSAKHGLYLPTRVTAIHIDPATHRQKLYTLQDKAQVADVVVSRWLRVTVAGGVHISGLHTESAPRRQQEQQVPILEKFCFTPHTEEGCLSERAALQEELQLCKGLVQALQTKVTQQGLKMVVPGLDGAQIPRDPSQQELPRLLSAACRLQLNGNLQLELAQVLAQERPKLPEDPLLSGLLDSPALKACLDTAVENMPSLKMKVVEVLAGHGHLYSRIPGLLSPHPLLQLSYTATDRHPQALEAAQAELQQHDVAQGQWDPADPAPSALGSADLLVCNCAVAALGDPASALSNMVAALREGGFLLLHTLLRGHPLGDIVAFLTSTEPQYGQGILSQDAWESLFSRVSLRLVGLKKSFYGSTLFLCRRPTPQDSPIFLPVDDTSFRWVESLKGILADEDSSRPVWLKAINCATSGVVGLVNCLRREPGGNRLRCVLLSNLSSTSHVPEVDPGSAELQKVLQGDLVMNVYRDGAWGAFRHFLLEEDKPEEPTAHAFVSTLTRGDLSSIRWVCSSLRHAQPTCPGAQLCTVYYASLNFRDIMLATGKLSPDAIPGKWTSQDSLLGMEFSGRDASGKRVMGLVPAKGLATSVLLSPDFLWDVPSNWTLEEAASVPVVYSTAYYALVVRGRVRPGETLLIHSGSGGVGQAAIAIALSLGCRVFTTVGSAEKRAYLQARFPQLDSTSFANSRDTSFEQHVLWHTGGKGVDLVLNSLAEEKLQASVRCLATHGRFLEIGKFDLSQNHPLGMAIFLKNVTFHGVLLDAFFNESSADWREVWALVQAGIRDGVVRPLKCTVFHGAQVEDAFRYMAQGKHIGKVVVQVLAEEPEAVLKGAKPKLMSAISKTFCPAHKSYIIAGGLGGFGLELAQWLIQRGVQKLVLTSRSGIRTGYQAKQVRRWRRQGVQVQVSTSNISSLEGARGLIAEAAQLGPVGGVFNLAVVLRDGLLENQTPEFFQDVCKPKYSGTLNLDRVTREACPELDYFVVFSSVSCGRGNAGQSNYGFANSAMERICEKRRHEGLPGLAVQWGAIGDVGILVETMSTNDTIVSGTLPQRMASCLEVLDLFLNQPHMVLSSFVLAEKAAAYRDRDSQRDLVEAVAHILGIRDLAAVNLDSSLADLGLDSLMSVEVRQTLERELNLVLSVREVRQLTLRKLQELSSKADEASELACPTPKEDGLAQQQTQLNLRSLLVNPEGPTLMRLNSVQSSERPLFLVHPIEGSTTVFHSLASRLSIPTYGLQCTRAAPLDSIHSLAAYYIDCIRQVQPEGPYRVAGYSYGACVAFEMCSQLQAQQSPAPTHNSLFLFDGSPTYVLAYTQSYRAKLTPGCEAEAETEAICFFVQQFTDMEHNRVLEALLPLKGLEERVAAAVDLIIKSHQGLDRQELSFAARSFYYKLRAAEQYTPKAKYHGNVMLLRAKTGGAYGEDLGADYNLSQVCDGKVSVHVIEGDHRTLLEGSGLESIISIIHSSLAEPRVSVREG
row,Compound,IC50s in the range of about 0.001 μM to about 30 μM
1,"Cc1ccc(C(=O)N2CCC(c3ccc(C(=O)N4CCCN(C)CC4)cc3)CC2)cc1NS(C)(=O)=O [N-[2-methyl-5-[4-[4-(4-methyl1,4-diazepane-1-carbonyl)phenyl]piperidine-1-carbonyl]phenyl]methanesulfonamide]",do not have IC50s in the range of about 0.001 μM to about 30 μM
2,Cc1ccc(C(=O)N2CCC(c3ccc(S(=O)(=O)N4CCN(C)CC4)cc3)CC2)cc1NS(C)(=O)=O [N-[2-methyl-5-[4-[4-(4-methylpiperazin-1-yl)sulfonylphenyl]piperidine-1-carbonyl]phenyl]methanesulfonamide],do not have IC50s in the range of about 0.001 μM to about 30 μM
3,CS(=O)(=O)Nc1ccc(F)c(C(=O)N2CCC(c3ccc(C#N)cc3)CC2)c1 [N-[3-[4-(4-cyanophenyl)piperidine-1-carbonyl]-4-fluorophenyl]methanesulfonamide],do not have IC50s in the range of about 0.001 μM to about 30 μM
4,Cc1ccc(C(=O)N2CCC(O)(c3ccccc3)CC2)cc1NS(C)(=O)=O [N-[5-(4-hydroxy-4-phenylpiperidine-1-carbonyl)-2-methylphenyl]methanesulfonamide],do not have IC50s in the range of about 0.001 μM to about 30 μM
5,Cc1ccc(C(=O)N2CCC(c3ccccc3C#N)CC2)cc1NS(C)(=O)=O [N-[5-[4-(2-cyanophenyl)piperidine-1-carbonyl]-2-methylphenyl]methanesulfonamide],do not have IC50s in the range of about 0.001 μM to about 30 μM
6,Cc1ccc(C(=O)N2CCC(O)(c3ccccc3F)CC2)cc1NS(C)(=O)=O [N-[5-[4-(2-fluorophenyl)-4-hydroxypiperidine-1-carbonyl]-2-methylphenyl]methanesulfonamide],do not have IC50s in the range of about 0.001 μM to about 30 μM
7,COc1ccccc1C1CCN(C(=O)c2ccc(C)c(NS(C)(=O)=O)c2)CC1 [N-[5-[4-(2-methoxyphenyl)piperidine-1-carbonyl]-2-methylphenyl]methanesulfonamide],do not have IC50s in the range of about 0.001 μM to about 30 μM
8,"Cc1ccc(C(=O)N2CCC(c3ccc(C#N)c(C#N)c3)CC2)cc1NS(C)(=O)=O [N-[5-[4-(3,4-dicyanophenyl)piperidine-1-carbonyl]-2-methylphenyl]methanesulfonamide]",do not have IC50s in the range of about 0.001 μM to about 30 μM
9,Cc1ccc(C(=O)N2CCC(c3cccc(Br)c3)CC2)cc1NS(C)(=O)=O [N-[5-[4-(3-bromophenyl)piperidine-1-carbonyl]-2-methylphenyl]methanesulfonamide],do not have IC50s in the range of about 0.001 μM to about 30 μM
10,Cc1ccc(C(=O)N2CCC(c3cccc(Cl)c3)CC2)cc1NS(C)(=O)=O [N-[5-[4-(3-chlorophenyl)piperidine-1-carbonyl]-2-methylphenyl]methanesulfonamide],do not have IC50s in the range of about 0.001 μM to about 30 μM
11,Cc1ccc(C(=O)N2CCC(c3cccc(C#N)c3)CC2)cc1NS(C)(=O)=O [N-[5-[4-(3-cyanophenyl)piperidine-1-carbonyl]-2-methylphenyl]methanesulfonamide],do not have IC50s in the range of about 0.001 μM to about 30 μM
12,C#Cc1cccc(C2CCN(C(=O)c3ccc(C)c(NS(C)(=O)=O)c3)CC2)c1 [N-[5-[4-(3-ethynylphenyl)piperidine-1-carbonyl]-2-methylphenyl]methanesulfonamide],do not have IC50s in the range of about 0.001 μM to about 30 μM
13,Cc1ccc(C(=O)N2CCC(c3cccc(F)c3)CC2)cc1NS(C)(=O)=O [N-[5-[4-(3-fluorophenyl)piperidine-1-carbonyl]-2-methylphenyl]methanesulfonamide],do not have IC50s in the range of about 0.001 μM to about 30 μM
14,COc1cccc(C2CCN(C(=O)c3ccc(C)c(NS(C)(=O)=O)c3)CC2)c1 [N-[5-[4-(3-methoxyphenyl)piperidine-1-carbonyl]-2-methylphenyl]methanesulfonamide],do not have IC50s in the range of about 0.001 μM to about 30 μM
15,Cc1ccc(C(=O)N2CCC(O)(c3ccc(Cl)cc3)CC2)cc1NS(C)(=O)=O [N-[5-[4-(4-chlorophenyl)-4-hydroxypiperidine-1-carbonyl]-2-methylphenyl]methanesulfonamide],do not have IC50s in the range of about 0.001 μM to about 30 μM
16,Cc1ccc(C(=O)N2CCC(c3ccc(C#N)cc3C)CC2)cc1NS(C)(=O)=O [N-[5-[4-(4-cyano-2-methylphenyl)piperidine-1-carbonyl]-2-methylphenyl]methanesulfonamide],do not have IC50s in the range of about 0.001 μM to about 30 μM
17,"Cc1ccc(C(=O)N2CCC(c3cc(F)c(C#N)c(F)c3)CC2)cc1NS(C)(=O)=O [N-[5-[4-(4-cyano-3,5-difluorophenyl)piperidine-1-carbonyl]-2-methylphenyl]methanesulfonamide]",do not have IC50s in the range of about 0.001 μM to about 30 μM
18,CS(=O)(=O)Cc1ccc(C(=O)N2CCC(c3ccc(C#N)cc3)CC2)cc1NS(C)(=O)=O [N-[5-[4-(4-cyanophenyl)piperidine-1-carbonyl]-2-(methylsulfonylmethyl)phenyl]methanesulfonamide],do not have IC50s in the range of about 0.001 μM to about 30 μM
19,N#Cc1ccc(C2CCN(C(=O)c3ccc(OC(F)(F)F)c(NS(=O)(=O)Cc4ccccc4)c3)CC2)cc1 [N-[5-[4-(4-cyanophenyl)piperidine-1-carbonyl]-2-(trifluoromethoxy)phenyl]-1-phenylmethanesulfonamide],do not have IC50s in the range of about 0.001 μM to about 30 μM
20,CS(=O)(=O)Nc1cc(C(=O)N2CCC(c3ccc(C#N)cc3)CC2)ccc1OC(F)(F)F [N-[5-[4-(4-cyanophenyl)piperidine-1-carbonyl]-2-(trifluoromethoxy)phenyl]methanesulfonamide],do not have IC50s in the range of about 0.001 μM to about 30 μM
21,CS(=O)(=O)Nc1cc(C(=O)N2CCC(c3ccc(C#N)cc3)CC2)ccc1F [N-[5-[4-(4-cyanophenyl)piperidine-1-carbonyl]-2-fluorophenyl]methanesulfonamide],do not have IC50s in the range of about 0.001 μM to about 30 μM
22,C[S+]([O-])c1ccc(C(=O)N2CCC(c3ccc(C#N)cc3)CC2)cc1NS(C)(=O)=O (centres unmarked) [N-[5-[4-(4-cyanophenyl)piperidine-1-carbonyl]-2-methylsulfinylphenyl]methanesulfonamide],do not have IC50s in the range of about 0.001 μM to about 30 μM
23,Cc1ccc(C(=O)N2CCC(c3ccc(C#CC(C)(C)N)cc3)CC2)cc1NS(C)(=O)=O [N-[5-[4-[4-(3-amino-3-methylbut-1-ynyl)phenyl]piperidine-1-carbonyl]-2-methylphenyl]methanesulfonamide],do not have IC50s in the range of about 0.001 μM to about 30 μM
